Laboratory results: patent US10888089B2, “Methods and compositions for controlling fungus-growing ants” (UNIVERSITE PARIS EST CRETEIL VAL DE MARNE, priority 2016, dated 2021)

Experiments:
[1] = tested on: Streptomyces (NA 2B3); experiment: Antibacterial activity using discs in Petri dishes, strain Streptomyces NA2B3; type: cell-based
Description: (§1) The general principle is to test in solid medium the culture of the strain in the presence of a paper disc impregnated with the molecule to be tested. For each molecule tested at least three dilutions were prepared. In the presence of a molecule, a halo, the diameter of which is related to the intensity of the inhibitory effect, appears around the paper disc. This approach provides a simple way to select antibacterial molecules and to determine the minimum inhibitory concentration (MIC) of bacterial growth.
(§2) Antibacterial activity can be measured in liquid medium (in a liquid bacterial culture) or in solid medium (on an agar Petri dish) by adding a known concentration of antibiotic. In liquid medium, inhibition is measured by an optical density (OD); in solid medium, growth inhibition is estimated by the diameter of the halo corresponding to the zone where no growth is observed.
(§3) From the isolates, a sample is taken. This is suspended in 1 mL of physiological saline solution without measuring OD.
(§4) Inoculation is performed with 100 μL of suspension using a spreader. For undiluted essential oil tests, a disc soaked in essential oil is placed in the centre of the dish. For dilutions (½; ⅕), both discs are placed in the same dish. Dilutions were prepared by diluting the essential oils in sunflower oil. A control dish was prepared and consists of an inoculate in the absence of essential oil. A second control, this time with a disc impregnated with sunflower oil, was also prepared to confirm the absence of an effect. All products were sterilised and the experiments were performed under a hood in sterile conditions.
(§5) After 4 days of growth, the inhibition diameters were measured.

[2] = tested on: 5 actinomycete strains isolated from fungus-growing ants; experiment: Antibacterial activity using discs in Petri dishes, average of 5 actinomycete strains; type: cell-based, Streptomyces, Tsukumurella and Gordonia
Description: as §1, §2, §3, §4, §5
This step made it possible to isolate, from ants belonging to the species Acromyrmex octospinosus, 15 actinomycete strains including 12 belonging to the genus Tsukumurella, two to the genus Streptomyces and one to the genus Gordonia. In total, 5 strains belonging to the genera Streptomyces, Tsukumurella and Gordonia were selected for the analysis of antibacterial substances.

[3] = tested on: laccase activity of Acromyrmex octospinosus and of Leucophorus gongylophorus; experiment: Laccase inhibition (ABTS), ant and fungus garden samples together; type: biochemical; details: for anti-laccase activity (in words): data not shown
Description: Crushing was performed in mortars placed on ice, using pestles. Ants (2 g) and fungus garden (2 g) were crushed in 10 mL of distilled water refrigerated at 4° C. After obtaining crushed matter of homogeneous texture, the whole was centrifuged. Centrifugation was performed at 4° C., 15,000 rpm for 20 min.
For protein precipitation, the supernatant was 80% saturated with ammonium sulphate ((NH4)2SO4). After total dissolution of the ammonium sulphate, the solution obtained is placed at 4° C. for 12 hours. The solution was then centrifuged at a temperature of 4° C., at 15,000 rpm, for 20 min. The pellet obtained is redissolved in a minimum of cold distilled water and then dialysed against 5 litres of distilled water at 4° C. for 12 hours. The extract thus obtained constitutes the crude enzyme extract. These extracts were aliquoted and then stored at −20° C.
Laccase activity was evaluated using 2,2′-azino-bis(3-ethylbenzthiazoline-6-sulphonic acid) (ABTS) as oxidation control substrate. Briefly, ABTS is diluted to 27.4 mg/L in Mcllvain buffer solution (pH 5.2). 150 μL of ABTS solution is incubated with 100 μL of test solution and then incubated for 30 min at 37° C. The measurement of OD at 405 nm is used to determine the amount of oxidised ABTS using Beer-Lambert's law (epsilon=36,000 mM).
The determination of laccase activity is based on a colorimetric method where the substrate ABTS (2,2′-azino-bis(3-ethylbenzthiazoline-6-sulphonic acid) in reduced form (colourless) is oxidised (green colour) in the presence of the enzyme. The method was published by Bourbonnais et al. in 1990 (Oxidation of non-phenolic substrates. An expanded role for laccase in lignin biodegradation. FEBS, 1990, 267, 99-102). To test the inhibition of laccase activity, the molecule tested is added to the reaction mixture in amounts ranging from 0.1 mM to 100 mM. The inhibitors selected for analysis are compounds having antioxidant capacity.

[4] = tested on: laccase; experiment: Laccase inhibition (ABTS colorimetric method), ant sample; type: biochemical; details: anti-laccase activity, ABTS substrate, read-out: IC50 Acromyrmex octospinosus
Description: (§6) Crushing was performed in mortars placed on ice, using pestles. […] After obtaining crushed matter of homogeneous texture, the whole was centrifuged. Centrifugation was performed at 4° C., 15,000 rpm for 20 min. For protein precipitation, the supernatant was 80% saturated with ammonium sulphate ((NH4)2SO4). After total dissolution of the ammonium sulphate, the solution obtained is placed at 4° C. for 12 hours. The solution was then centrifuged at a temperature of 4° C., at 15,000 rpm, for 20 min. The pellet obtained is redissolved in a minimum of cold distilled water and then dialysed against 5 litres of distilled water at 4° C. for 12 hours. The extract thus obtained constitutes the crude enzyme extract. These extracts were aliquoted and then stored at -20° C. […] Briefly, ABTS is diluted to 27.4 mg/L in […] buffer solution (pH 5.2). 150 μL of ABTS solution is incubated with 100 μL of test solution and then incubated for 30 min at 37° C. The measurement of OD at 405 nm is used to determine the amount of oxidised ABTS using Beer-Lambert's law (epsilon=36,000 mM). […] The method was published by Bourbonnais et al. in 1990 (Oxidation of non-phenolic substrates. An expanded role for laccase in lignin biodegradation. FEBS, 1990, 267, 99-102). […] The inhibitors selected for analysis are compounds having antioxidant capacity.

[5] = tested on: laccase; experiment: Laccase inhibition (ABTS colorimetric method), fungus garden sample; type: biochemical; details: anti-laccase activity, ABTS substrate, read-out: IC50 Leucophorus gongylophorus
Description: as §6

SMILES | inhibition diameter ([1]; Table 5, 20%) [cm] | Average inhibition diameters ([2]; Table 6, 20%) | IC50 [4] [µM] | IC50 [5] [µM] | also measured
CC[C@H]1OC(=O)[C@H](C)[C@@H](O[C@H]2C[C@@](C)(OC)[C@@H](O)[C@H](C)O2)[C@H](C)[C@@H](O[C@@H]2O[C@H](C)C[C@H](N(C)C)[C@H]2O)[C@](C)(O)C[C@@H](C)C(=O)[C@H](C)[C@@H](O)[C@]1(C)O [Erythromycin, reference compound] | 4.3 ± 0.3 | 3.6 ± 0.4 |  |  | inhibition diameter ([1]; Table 3, 10%): 2.2 ± 0.3 cm; inhibition diameter ([1]; Table 3, 20%): 3.6 ± 0.4 cm; inhibition diameter ([1]; Table 5, 10%): 3.5 ± 0.5 cm; Average inhibition diameters ([2]; Table 4, 10%): 3.2 ± 0.4 cm; Average inhibition diameters ([2]; Table 4, 20%): 3.6 ± 0.4 cm; Average inhibition diameters ([2]; Table 6, 10%): 3.2 ± 0.4
C=CCc1ccc(O)c(OC)c1 [Eugenol] |  | 2.9 ± 0.7 |  |  | anti-laccase activity (in words) [3]: anti-laccase activity was observed
COc1cc(/C=C/C(=O)O)ccc1O [Ferulic acid] |  |  | < 100 | < 50 | 
Cc1ccc(C(C)C)c(O)c1 [Thymol] | 1.7 ± 0.8 | 2.2 ± 0.3 |  |  | anti-laccase activity (in words) [3]: anti-laccase activity was observed
O=C1O[C@H]([C@@H](O)CO)C(O)=C1O [Ascorbic acid] |  |  | < 250 | < 250 | 
COc1cc(C(=O)O)cc(OC)c1O [Syringic acid] |  |  | < 250 | < 100 | 
O=C(O)c1cc(O)c(O)c(O)c1 [Gallic acid] |  |  | < 50 | < 50 | 
O=S(O)(O)=S [Sodium thiosulfate] |  |  | < 250 | < 250 | 
N[C@@H](CS)C(=O)O [L-Cysteine] |  |  | < 250 | < 250 | inhibition of laccase activity ([3]; at concentrations above 0.5 mM (FIG. 1)): more than 80%
O=CC=Cc1ccccc1 [Cinnamaldehyde] | 3.0 ± 1.5 | 4.5 ± 0.6 |  |  | Average inhibition diameters ([2]; Table 6, 10%): 2.9 ± 0.6
Cc1ccc(C(C)C)cc1O [Carvacrol] | 2.2 ± 0.3 | 2.4 ± 0.3 |  |  | 
